Laboratory results published in PubChem BioAssay (NCI).
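Protocol summary: plate cells (96-well), add compound at 5 concentrations, incubate 48 h, interpolate endpoints linearly. GI50 is the concentration that inhibits growth by half. TGI denotes the concentration required for complete inhibition of growth.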

Columns and labels:
Test in all cases: NCI tumour cell line growth inhibition, 48 h
[1] = system: HCT-15 colon
[2] = system: MDA-MB-435
[3] = system: PC-3 prostate
[4] = system: M14 melanoma
[5] = system: NCI-H522 lung
[6] = system: HT29 colon
[7] = system: U251 CNS
[8] = system: SK-OV-3 ovarian
[9] = system: SF-268 CNS
[10] = system: NCI-H226 lung

In the case of `COc1cc2c3c(n(CCCOC(=O)C(F)(F)F)c(=O)c2cc1OC)-c1cc2c(cc1C3=O)OCO2`, the GI50 [1] is reported as 0.103 µM, the TGI [1] is reported as > 100 µM and the GI50 [2] is reported as 0.0232 µM. For the same compound, the TGI [2] was 3.69 µM, the GI50 [3] was 0.0532 µM and the TGI [3] was > 100 µM. For the same compound, the GI50 [4] was < 0.0123 µM, the GI50 [5] was 0.0167 µM and the TGI [6] was > 35.1 µM. The GI50 [7] was < 0.01 µM, the TGI [7] was 1.07 µM and the TGI [8] was > 100 µM. The TGI [9] was > 32.2 µM, the GI50 [10] was < 0.0151 µM and the TGI [10] was 0.161 µM.
`CCOc1ccncc1[N+](=O)[O-]` was tested, and the TGI [1] was > 100 µM, the TGI [2] was > 100 µM and the TGI [3] was > 100 µM. The TGI [4] was > 100 µM, the TGI [5] was > 100 µM and the TGI [6] was > 100 µM. The TGI [7] was > 100 µM, the TGI [8] was > 100 µM and the TGI [9] was > 100 µM. For the same compound, the TGI [10] was > 100 µM.
`O=C(O)c1ccc(OCc2ccccc2)c(Cl)c1` was tested, and the TGI [1] was > 100 µM, the TGI [2] was > 100 µM and the TGI [3] was > 100 µM. For the same compound, the TGI [4] was > 100 µM, the TGI [5] was > 100 µM and the TGI [6] was > 100 µM. The TGI [7] was > 100 µM, the TGI [8] was > 100 µM and the TGI [9] was > 100 µM. The TGI [10] was > 100 µM.
For `COc1cc(OC)c(/C=C/c2c3ccccc3cc[n+]2C)c(OC)c1`, the GI50 [1] was 24.7 µM, the TGI [1] was > 100 µM and the GI50 [2] was 0.781 µM. For the same compound, the TGI [2] was 10.1 µM, the GI50 [3] was 0.943 µM and the TGI [3] was > 37.9 µM. The GI50 [4] was 2.62 µM, the TGI [4] was 15.4 µM and the GI50 [5] was 1.52 µM. For the same compound, the TGI [5] was 6.49 µM, the GI50 [6] was 1.64 µM and the TGI [6] was 10.3 µM. The GI50 [7] was 1.1 µM, the TGI [7] was 14.1 µM and the GI50 [8] was 3.58 µM. For the same compound, the TGI [8] was > 100 µM, the GI50 [9] was 2.54 µM and the TGI [9] was 19.3 µM. The GI50 [10] was 2.73 µM and the TGI [10] was > 100 µM.
In the case of `COc1ccc(CCNC(=O)c2ccc(NC3=C(Cl)C(=O)N(Cc4ccccc4)C3=O)cc2)cc1OC`, the GI50 [1] is reported as 4.1 µM, the TGI [1] is reported as > 100 µM and the GI50 [2] is reported as 15.8 µM. It also gave a TGI [2] of 43.8 µM, a GI50 [3] of 6.02 µM and a TGI [3] of 27.8 µM. For the same compound, the GI50 [4] was 5.47 µM, the TGI [4] was > 100 µM and the GI50 [5] was 4.74 µM. For the same compound, the TGI [5] was 89.9 µM, the GI50 [6] was 7.88 µM and the TGI [6] was > 100 µM. The GI50 [7] was 32.8 µM, the TGI [7] was > 100 µM and the GI50 [8] was 35.8 µM. For the same compound, the TGI [8] was > 100 µM, the GI50 [9] was 26.2 µM and the TGI [9] was > 100 µM. For the same compound, the GI50 [10] was 10 µM and the TGI [10] was > 100 µM.
With `COc1ccc(-n2c(C)cc(-c3ccccc3)c2C)cc1` the GI50 [1] was 1.95 µM, the TGI [1] was 13.3 µM and the GI50 [2] was 1.56 µM. The TGI [2] was 5.58 µM, the GI50 [3] was 2.22 µM and the TGI [3] was > 100 µM. For the same compound, the GI50 [4] was 2.59 µM, the TGI [4] was 9.14 µM and the GI50 [5] was 1.48 µM. The TGI [5] was 4.68 µM, the GI50 [6] was 1.89 µM and the TGI [6] was 7.23 µM. The GI50 [7] was 2.87 µM, the TGI [7] was 25.4 µM and the GI50 [8] was 6.83 µM. For the same compound, the TGI [8] was 68.6 µM, the GI50 [9] was 4.46 µM and the TGI [9] was 33.3 µM. For the same compound, the GI50 [10] was 5.75 µM and the TGI [10] was 31.2 µM.
Work on `CCN(Cc1ccccc1C)c1ccc(CO)c(Cl)c1` yielded a GI50 [1] of 8.57 µM, a TGI [1] of 29.3 µM and a GI50 [2] of 3.67 µM. It also gave a TGI [2] of 15.4 µM, a GI50 [3] of 12.1 µM and a TGI [3] of 25.4 µM. It also gave a GI50 [4] of 15.3 µM, a TGI [4] of 31.2 µM and a GI50 [5] of 13.4 µM. For the same compound, the TGI [5] was 28.8 µM, the GI50 [6] was 9.97 µM and the TGI [6] was 26.3 µM. For the same compound, the GI50 [7] was 2.84 µM, the TGI [7] was 17.1 µM and the GI50 [8] was 13.7 µM. It also gave a TGI [8] of 31.5 µM, a GI50 [9] of 16.1 µM and a TGI [9] of 31.8 µM. For the same compound, the GI50 [10] was 0.0375 µM and the TGI [10] was 0.201 µM.
